Reference: PubChem BioAssay AID256 (DTP/NCI, 2004)
“And” between values parts separate entries of the source, which are not always exact repeats. Equal entries are not always repeated. Inconclusive results and toxic doses are left out. Rule for the calls: active = survival T/C of 150% or more; inactive = T/C below 125% in these data.

System: CD2F1 mice, L1210 leukemia ip, survival T/C
Test: NCI In Vivo Anticancer Drug Screen. Data for tumor model L1210 Leukemia (intraperitoneal) in CD2F1 (CDF1) mice
Settings: endpoint: mean survival time, higher = longer survival
Method in brief: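 Antitumor effect is scored in animals hosting a serially transplanted tumor. Values compare compound-dosed animals against vehicle-only controls as a simple quotient.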

[1] = dose: 100.0 mg/kg/injection, schedule: Q04DX002 (ip), vehicle: saline with Tween-80
[2] = dose: 200.0 mg/kg/injection, schedule: Q04DX002 (ip), vehicle: saline with Tween-80
[3] = dose: 400.0 mg/kg/injection, schedule: Q04DX002 (ip), vehicle: saline with Tween-80
[4] = dose: 100.0 mg/kg/injection, schedule: Q01DX009 (ip), vehicle: saline with Tween-80
[5] = dose: 200.0 mg/kg/injection, schedule: Q01DX009 (ip), vehicle: saline with Tween-80
[6] = dose: 400.0 mg/kg/injection, schedule: Q01DX009 (ip), vehicle: saline with Tween-80
[7] = dose: 100.0 mg/kg/injection, schedule: Q04DX003 (ip), vehicle: saline with Tween-80
[8] = dose: 200.0 mg/kg/injection, schedule: Q04DX003 (ip), vehicle: saline with Tween-80
[9] = dose: 400.0 mg/kg/injection, schedule: Q04DX003 (ip), vehicle: saline with Tween-80
[10] = dose: 100.0 mg/kg/injection, schedule: Q01DX001 (ip), vehicle: saline with Tween-80
[11] = dose: 200.0 mg/kg/injection, schedule: Q01DX001 (ip), vehicle: saline with Tween-80
[12] = dose: 400.0 mg/kg/injection, schedule: Q01DX001 (ip), vehicle: saline with Tween-80

Measured: T/C

[CH3][Tl]([CH3])[Br]
inactive: [1] 100 % of control | [2] 96 % of control | [3] 96 % of control

COC1OC(COC(C)=O)C(OC2OC(COC(C)=O)C(OC(C)=O)C(OC(C)=O)C2OC(C)=O)C(OC(C)=O)C1OC(C)=O (stereo unspecified)
inactive: [4] 98 % of control | [5] 104 % of control | [6] 106 % of control

CC(C)(Cc1ccc([N+](=O)[O-])cc1)[N+](=O)[O-]
inactive: dose: 75.0 mg/kg/injection, schedule: Q01DX001 (ip), vehicle: saline 98 % of control | dose: 150.0 mg/kg/injection, schedule: Q01DX001 (ip), vehicle: saline 102 % of control

O=C(O)c1c(Cl)cc(Cl)c(-c2c(Cl)cc(Cl)c(C(=O)O)c2Cl)c1Cl
inactive: [4] 103 % of control | [7] 92 % of control | [5] 98 % of control | [8] 98 % of control | [6] 104 % of control | [9] 100 % of control

O=C(CNC(=O)NCc1ccco1)N/N=C/c1cccc([N+](=O)[O-])c1
inactive: dose: 50.0 mg/kg/injection, schedule: Q01DX009 (ip), vehicle: saline with Tween-80 92 % of control | [4] 88 % of control | [5] 103 % of control

CC1CCC(C)C([N+](C)(C)C)C1 (stereo unspecified)
inactive: dose: 12.5 mg/kg/injection, schedule: Q01DX001 (ip), vehicle: saline 102 % of control | dose: 25.0 mg/kg/injection, schedule: Q01DX001 (ip), vehicle: saline 110 % of control | dose: 50.0 mg/kg/injection, schedule: Q01DX001 (ip), vehicle: saline 100 % of control

C/C=C1/C[C@@H](C)[C@@](C)(O)C(=O)OCC2=CC[N+]3([O-])CC[C@@H](OC1=O)[C@@H]23 (stereo partly specified)
inactive: [10] 103 % of control | [11] 97 % of control

O=C(CNC(=O)Nc1ccc(Cl)c(Cl)c1)NNC(=O)Nc1ccc(F)c(Cl)c1
inactive: [4] 96 % of control | [5] 95 % of control | [6] 91 % of control

OCc1c(Cl)cccc1Cl
inactive: [10] 104 % of control | [4] 96 % of control and 102 % of control | [1] 97 % of control and 105 % of control | [7] 103 % of control | [11] 102 % of control | [5] 95 % of control and 96 % of control | [2] 97 % of control and 112 % of control | [8] 113 % of control | [12] 107 % of control | [6] 101 % of control and 104 % of control | [3] 101 % of control and 109 % of control | [9] 103 % of control

CC1C(=O)OC2C1CCC1(C)C=CC(=O)C(C)C21 (stereo unspecified)
inactive: dose: 5.0 mg/kg/injection, schedule: Q04DX002 (ip), vehicle: saline with Tween-80 108 % of control | dose: 10.0 mg/kg/injection, schedule: Q04DX002 (ip), vehicle: saline with Tween-80 100 % of control | dose: 20.0 mg/kg/injection, schedule: Q04DX002 (ip), vehicle: saline with Tween-80 108 % of control | [1] 116 % of control | [2] 120 % of control

O=C(/C=C/c1ccccc1)c1cccc([N+](=O)[O-])c1
inactive: [1] 91 % of control | [2] 91 % of control | [3] 95 % of control

CC(C)(C)OC(=O)NC(CCCCNC(=O)OCc1ccccc1)C(=O)Oc1ccc([N+](=O)[O-])cc1 (stereo unspecified)
inactive: [7] 91 % of control | [8] 86 % of control | [9] 86 % of control

COc1ccc(C2C3C=CC(C3)C2C(=O)O)cc1 (stereo unspecified)
inactive: [4] 96 % of control | [7] 106 % of control | [5] 96 % of control | [8] 103 % of control | [6] 103 % of control | [9] 95 % of control

CCCCCCCCCCCCCCCCCCSc1ccc(Br)cc1
inactive: [10] 92 % of control | [12] 86 % of control
